Measured values taken from PubChem BioAssay AID1250 (SRMLSC, 2008).
Active and inactive are the calls of the source.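 How the source made its calls: active means inhibition of at least 30% at one or more tested concentrations; inactive means inhibition below 30% at every dose.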

Test system: BSR cells, Bluetongue virus CPE, ATP luminescence, 72 h
Experiment: inhibitors of Bluetongue virus cytopathic effect, confirmation, arbovirus, BSR cells (AID 1250)
Conditions: not given
Compound `Oc1ccc(Br)cc1-c1cc(-c2ccc(Cl)cc2)n[nH]1` has an IC50 of 17.5 µM.
With `C=CCn1c(CNC(=O)c2cccs2)nnc1SCc1ccc(Cl)cc1Cl` the IC50 was 11 µM.
With `Cc1nc(Nc2ccc3c(c2)OCCO3)c2nnn(Cc3ccccc3Cl)c2n1` the IC50 was 20.8 µM.
Work on `CC(C(=O)Nc1ccccc1-c1ccccc1)N1CCN(S(=O)(=O)c2ccccc2)CC1` (configuration not stated) yielded an IC50 of 1.4 µM.
`Cc1ccc(N2C(=O)/C(=C\c3ccc(C(C)C)cc3)N=C2SC2CCOC2=O)cc1` (configuration not stated) showed an IC50 of 12.1 µM.
`CC1(c2ccc([N+](=O)[O-])cc2)CC(C)(C)N(C(=O)c2ccccc2)c2ccccc21` (configuration not stated) showed an IC50 of 9.68 µM.
With `Cc1ccc(-c2csc(NC(=O)C3=NN(c4ccccc4)C(=O)CC3)n2)cc1` the IC50 was 11.1 µM.
`CCNc1nc(SCCOc2ccc(Cl)cc2Cl)nc(N(C)C)n1` gave an IC50 of 5.92 µM.
`COCCCn1c(N)c(-c2nc3ccccc3n2C)c2nc3ccccc3nc21` showed an IC50 of 7.62 µM.
With `O=C(Nc1nc(-c2ccc(Cl)cc2Cl)cs1)c1ccc(OCC2CCCO2)cc1` (configuration not stated) the IC50 was 5.08 µM.
Work on `COc1ccc(Cl)cc1NC(=O)c1cc(-c2ccccc2O)n[nH]1` yielded an IC50 of 14.4 µM.
For `CC(C)c1ccc(-c2csc(NC(=O)c3cccs3)c2C(=O)O)cc1`, the IC50 was 11.1 µM.
In the case of `COc1ccc(-c2csc(NC(=O)c3ccco3)n2)cc1`, the IC50 is reported as 19.3 µM.
`CC(C)COc1ccc(C(=O)Nc2sc3c(c2C(=O)O)CC(C)(C)OC3)cc1` showed an IC50 of 13.1 µM.
With `O=C(CSc1nc(-c2ccccc2)nc2c1Cc1ccccc1O2)Nc1ccc(C(=O)O)cc1` the IC50 was 17.5 µM.
In the case of `O=C(/C=C/c1cccs1)Nc1scc(-c2ccccc2)c1C(=O)O`, the IC50 is reported as 6.24 µM.
For `O=C(/C=C/c1ccccc1)Nc1scc(-c2ccccc2)c1C(=O)O`, the IC50 was 3.06 µM.
In the case of `O=C(/C=C/c1ccco1)Nc1sc2c(c1C(=O)O)CCC2`, the IC50 is reported as 17 µM.
`O=C(Nc1ccccc1)Nc1snnc1C(=O)Nc1cccc(O)c1` gave an IC50 of 19 µM.
Work on `O=C(O)CSc1cc(C(=O)c2ccccc2O)cn2c(=O)c3c(-c4ccccc4)csc3nc12` yielded an IC50 of 14.1 µM.
`Oc1ccc(Nc2nc(NCC3CCCO3)c3ccccc3n2)cc1` (configuration not stated) showed an IC50 of 20.8 µM.
Work on `COC(=O)c1ccccc1NC(=O)CN1CCC(n2nnc3cc(F)ccc32)CC1` yielded an IC50 of 0.178 µM.
`CC(C)Cc1csc(NC(=O)c2ccccc2Cl)c1C(=O)O` showed an IC50 of 20.6 µM.
`Cn1c(-c2c(N)n(-c3ccccc3)c3nc4ccccc4nc23)nc2ccccc21` showed an IC50 of 2.42 µM.
Work on `COc1ccc(NC(=O)c2c[nH]n3c(=O)cc(C4CCN(C(=O)OC(C)(C)C)CC4)nc23)cc1Cl` yielded an IC50 of 12.2 µM.
Work on `COc1ccc(/C=C/C(=O)Nc2ccccc2C(=O)O)cc1OC` yielded an IC50 of 4.78 µM.
`O=C(Nc1nc(-c2ccccc2)cs1)c1cccs1` gave an IC50 of 10.1 µM.
Work on `CC(C)(C)n1nnnc1C(c1ccc(C(F)(F)F)cc1)N(Cc1ccc(F)cc1)Cc1ccco1` (configuration not stated) yielded an IC50 of 20.5 µM.
Work on `Cc1nn(-c2ccccc2)c(Cl)c1/C=N/Nc1ccc(Cl)c(C(=O)O)c1` yielded an IC50 of 14.5 µM.
`Cc1cccc(C)c1-n1cccc1/C=C1/C(=N)N2C(=NC1=O)SN=C2S(C)(=O)=O` showed an IC50 of 16.4 µM.
In the case of `CCOc1ccc(C(=O)Nc2cc(NC(=O)c3ccc(OCC)c(Cl)c3)cc(C(=O)O)c2)cc1Cl`, the IC50 is reported as 20.9 µM.

Test system: not listed separately
Experiment: as above
Conditions: BSR cells, Bluetongue virus CPE, ATP luminescence, 72 h; at 20 µM (top of the series)
With `CC1Cc2ccccc2N1S(=O)(=O)c1cccc(C(=O)N2CCN(c3ncccn3)CC2)c1` (configuration not stated) the CPE inhibition was 19.4% (inactive).
For `CCc1ccc(C2=CC(c3cc(Br)ccc3F)n3ncnc3N2)cc1` (configuration not stated), the CPE inhibition was -5.9% (inactive).
For `COC1=C/C(=C/c2c(N)n3nc(-c4ccc(C)cc4)sc3nc2=O)C=CC1=O`, the CPE inhibition was 29.9% (inactive).
For `COc1ccc(/C=C2/C(=O)N(CC3CCCO3)C(=S)N2C)c(OC)c1` (configuration not stated), the CPE inhibition was 1.63% (inactive).
In the case of `COc1cc2c(C(=O)O)c(C)n(CC(C)C)c2c2ccccc12`, the CPE inhibition is reported as 28.1% (inactive).
In the case of `Brc1ccccc1/C=N/Nc1ccc2ccccc2n1`, the CPE inhibition is reported as 14.7% (inactive).
With `CSC1=NSC2=NC(=O)/C(=C\c3cccs3)C(=N)N12` the CPE inhibition was 16% (inactive).
In the case of `CCOC(=O)C1(Cc2cccc(OC)c2)CCN(Cc2cccc(OC)c2O)CC1`, the CPE inhibition is reported as 24.8% (inactive).
With `CC(C)S(=O)(=O)C1=NSC2=NC(=O)/C(=C\c3ccc(-c4cccc(C(=O)O)c4)o3)C(=N)N21` the CPE inhibition was 24.2% (inactive).
For `COc1cccc(-n2c(C)cc(/C=C3/C(=N)N4C(=NC3=O)SN=C4S(C)(=O)=O)c2C)c1`, the CPE inhibition was 19.6% (inactive).
In the case of `C=CCn1c(SCC(=O)Nc2nc3ccccc3s2)nnc1-c1ccccc1O`, the CPE inhibition is reported as 21.1% (inactive).
For `COc1cc(/C=C/C(=O)Nc2nnc(C(C)(C)C)s2)cc(OC)c1OC`, the CPE inhibition was 11.5% (inactive).
For `N=C1/C(=C/c2cccs2)C(=O)N=C2SN=C(SCc3ccccc3)N12`, the CPE inhibition was 29.3% (inactive).
For `O=C(Nc1nnc(SCc2ccc(F)cc2)s1)c1ccc2c(c1)C(=O)N(c1ccccc1Cl)C2=O`, the CPE inhibition was 20.2% (inactive).
With `CCOC(=O)c1c(-c2ccc(C)c(C)c2)csc1NC(=O)C1CC=CCC1C(=O)O` (configuration not stated) the CPE inhibition was 29.6% (inactive).
In the case of `Cc1cccc2c1-c1sc(C(=O)Nc3nccs3)cc1CO2`, the CPE inhibition is reported as 27% (inactive).
In the case of `Cc1ccc(N2CN=c3s/c(=C\c4ccccn4)c(=O)n3C2)cc1`, the CPE inhibition is reported as -1.84% (inactive).
With `CCc1cc2c(=O)c(-c3cscn3)coc2c(CN(C)C)c1O` the CPE inhibition was 5.92% (inactive).
In the case of `COc1ccccc1C(=O)NCC1CCN(c2ccc(S(=O)(=O)N3CCOCC3)cc2)CC1`, the CPE inhibition is reported as 6.04% (inactive).
In the case of `N#CC(C#N)=Cc1cc2ccccc2nc1N1CCCCC1`, the CPE inhibition is reported as 12.6% (inactive).
In the case of `CN1CCN(c2ccc(/C=C3\C(=O)NC(=S)N(c4cccc(Br)c4)C3=O)o2)CC1`, the CPE inhibition is reported as 14.7% (inactive).
With `CC1(C)C2CCC(C2)C1(C)NC(=O)CNCc1cccs1` (configuration not stated) the CPE inhibition was 2.65% (inactive).
With `COc1ccc(F)cc1C(=O)C1CCCN(C(=O)CSc2ccccn2)C1` (configuration not stated) the CPE inhibition was 17.6% (inactive).
For `FC(F)(F)c1ccc(Oc2ccc3ccccc3c2Br)nc1`, the CPE inhibition was 1.17% (inactive).
With `COc1ccc2cc(-c3cc(C(=O)O)c4ccccc4n3)ccc2c1` the CPE inhibition was 12.7% (inactive).
For `COc1ccc(C(=O)Nc2sc3c(c2C(=O)O)CC(C)(C)OC3)cc1`, the CPE inhibition was 27.2% (inactive).
For `COCCCNc1nc(-c2ccncc2)nc2ccccc12`, the CPE inhibition was 7.45% (inactive).
With `O=C1CC(=O)N(Cc2ccco2)C(=O)N1` the CPE inhibition was 2.11% (inactive).
For `CCCCn1c(SCc2cccc([N+](=O)[O-])c2)nc2ccsc2c1=O`, the CPE inhibition was 3.1% (inactive).
In the case of `CCCCCc1nnc(NC(=O)C2COc3ccccc3O2)s1` (configuration not stated), the CPE inhibition is reported as 17.9% (inactive).
With `Cc1[nH]nc2c1-c1nc3ccccc3nc1C(C)(C)C2` the CPE inhibition was 15.7% (inactive).
For `Cc1cc(F)ccc1S(=O)(=O)Nc1ncnc2scc(-c3ccc(F)cc3)c12`, the CPE inhibition was 21.7% (inactive).
In the case of `O=C1CC(N2CCC(Cc3ccccc3)CC2)C(=O)N1CCc1ccccc1` (configuration not stated), the CPE inhibition is reported as 3.89% (inactive).
For `O=C(O)c1csc(N/N=C/c2ccc(Br)cc2)n1`, the CPE inhibition was 8.09% (inactive).
With `CCCCOc1ccc(C(O)C(CN2CCCCC2)c2ccccc2)cc1` (configuration not stated) the CPE inhibition was 12.5% (inactive).
In the case of `COc1cccc(C2=CC(c3ccc(N(C)C)cc3)n3ncnc3N2)c1` (configuration not stated), the CPE inhibition is reported as 8.59% (inactive).
In the case of `Cc1ccc(S(=O)(=O)CCSc2cccc(C(=O)Nc3ccccc3C(=O)O)c2)cc1`, the CPE inhibition is reported as 28.2% (inactive).
In the case of `COc1ccc(NS(=O)(=O)c2cc(NC(=O)/C=C/c3cccs3)ccc2N2CCOCC2)cc1`, the CPE inhibition is reported as 18.4% (inactive).
In the case of `C/C=C/c1ccc(OCCCCOc2ccccc2C(C)=O)c(OC)c1`, the CPE inhibition is reported as 11.9% (inactive).
In the case of `CCCCCNc1nc2ccccc2nc1NS(=O)(=O)c1cccs1`, the CPE inhibition is reported as 20.4% (inactive).
In the case of `C=CCN(C(=O)c1cccc(N2C(=O)C3CC=CC(C)C3C2=O)c1)c1ccccc1` (configuration not stated), the CPE inhibition is reported as 8.5% (inactive).
In the case of `CCOc1cccc(C(=O)Nc2ccccc2N2CCN(C(=O)C(C)C)CC2)c1`, the CPE inhibition is reported as 9.61% (inactive).
In the case of `COCCSc1nnc(NC(=O)C2CCCCC2)s1`, the CPE inhibition is reported as 6.07% (inactive).
For `C=CCSc1nnc(NC(=O)CSc2nc3ccccc3o2)s1`, the CPE inhibition was 21.8% (inactive).
For `Cc1cc(C(=O)CSc2nnc(-c3ccco3)o2)c(C)n1Cc1ccco1`, the CPE inhibition was 2.98% (inactive).
In the case of `COc1ccc(C2=Nn3c(nnc3-c3ccncc3)SC2)cc1OC`, the CPE inhibition is reported as 20.1% (inactive).
In the case of `COc1ccccc1-n1c(C)cc(/C=C2/C(=N)N3C(=NC2=O)SN=C3S(C)(=O)=O)c1C`, the CPE inhibition is reported as 18.1% (inactive).
For `COc1ccc(C(=O)Nc2ccccc2C(=O)O)cc1Cl`, the CPE inhibition was 24.1% (inactive).
For `CCc1ccc(CCC(=O)Nc2ccccc2C(=O)O)o1`, the CPE inhibition was 21.9% (inactive).
With `O=C(Nc1nc(-c2ccccc2)ns1)c1cccs1` the CPE inhibition was 15.2% (inactive).
For `Cc1cccc(-n2c(=O)c3c4c(sc3n3c(=S)[nH]nc23)CCC4)c1`, the CPE inhibition was 7.97% (inactive).
In the case of `CC(C)c1cc(C(F)(F)F)n2nc(C(=O)Nc3ccc4c(c3)OCO4)cc2n1`, the CPE inhibition is reported as 9.64% (inactive).
With `Clc1cccc(-c2cc3nc4c(c(NCc5ccco5)n3n2)CCCC4)c1` the CPE inhibition was 10.7% (inactive).
For `Cc1ccc(-c2cc(-c3ccccc3)no2)c(O)c1`, the CPE inhibition was 15.6% (inactive).
With `CC(C)CCN(C(=S)NC(=O)C1CCCCC1)c1c(N)n(Cc2ccccc2)c(=O)[nH]c1=O` the CPE inhibition was 7% (inactive).
With `O=c1oc(/C=C/c2ccco2)nc2sc3c(c12)CCC3` the CPE inhibition was 21.9% (inactive).
In the case of `CCOC(=O)c1c(O)c2c(n(Cc3ccco3)c1=O)CCCC2`, the CPE inhibition is reported as 14.7% (inactive).
In the case of `COC(=O)c1ccccc1N/C=C/C(=O)c1ccc(Br)cc1`, the CPE inhibition is reported as 28.6% (inactive).
In the case of `O=S(=O)(c1ccc(Oc2ccc(Cl)cc2)c(S(=O)(=O)N2CCCCC2)c1)N1CCCCC1`, the CPE inhibition is reported as 22.6% (inactive).
With `CN(C)/N=C/c1ccc(P(c2ccc(/C=N/N(C)C)o2)c2ccc(/C=N/N(C)C)o2)o1` the CPE inhibition was 10.4% (inactive).
For `O=S(=O)(Nc1ccc(-c2nnc(SCc3ccc(Cl)cc3)o2)cc1)c1ccccc1`, the CPE inhibition was 7.09% (inactive).
For `COC(=O)[C@H](Cc1ccccc1)NC(=O)O[C@@H]1C(=O)c2cc(OC)ccc2O[C@H]1c1ccc(OC)c(Br)c1`, the CPE inhibition was 13.7% (inactive).
In the case of `Cc1ccc(C(=O)N/C(=C\c2cccs2)C(=O)NCc2cccnc2)cc1`, the CPE inhibition is reported as 10.2% (inactive).
In the case of `O=C(O)CCn1cc(/C=C/C(=O)c2ccc(Cl)cc2)c(-c2ccc(Br)cc2)n1`, the CPE inhibition is reported as 13.8% (inactive).
For `CS(=O)(=O)c1nsc2nc(=O)c(/C=C3\C=Nc4ccccc43)c(N)n12`, the CPE inhibition was 14.8% (inactive).
For `Cc1nn2c(-c3ccccc3)c(-c3ccccc3)nc2[nH]c1=O`, the CPE inhibition was 9.59% (inactive).
